# Experimental data published in patent publication US11293023B2, “Tunable endogenous protein degradation” (Dana-Farber Cancer Institute, Inc., priority 2015, dated 2022).
# Entries after “also recorded” stand apart in the source; their conditions may differ.
# Key:
# Type in all cases: cell-based
# [1] = test system: KRAS signaling (pMEK and pAKT); experiment: Immunoblot of downstream surrogates of KRAS signaling in NIH3T3 cells expressing dTAG-KRAS
# Method: (§1) FIG. 11 is an immunoblot of NIH3T3 cells expressing KRASG12V allele fused to FKBP* in the N-terminus or C-terminus. Cells were treated with 500 nM dFKBP7 for the indicated time. Cells were harvested and immunoblotted to measure degradation of FKBP*-KRASG12V and downstream surrogates of KRAS signaling (e.g. pMEK and pAKT).
# (§2) FIG. 12 is an immunoblot of NIH3T3 cells expressing FKBP* fused to the N-terminus of KRASG12V treated with 1 uM of the indicated dFKBP heterobifunctional compounds for 24 hours. Cells were harvested and immunoblotted to measure degradation of FKBP*-KRASG12V and downstream surrogates of KRAS signaling (e.g. pMEK and pAKT).
# (§3) FIG. 13 is an immunoblot of NIH3T3 cells expressing FKBP* fused to the N-terminus of KRASG12V treated with the indicated concentrations of dFKBP13 for 24 hours. Cells were harvested and immunoblotted to measure degradation of FKBP*-KRASG12V and downstream surrogates of KRAS signaling (e.g. pMEK and pAKT).
# (§4) FIG. 14 is an immunoblot of NIH3T3 cells expressing FKBP* fused to the N-terminus of KRASG12V treated with 1 uM dFKBP13 for the indicated time. Cells were harvested and immunoblotted to measure degradation of FKBP*-KRASG12V and downstream surrogates of KRAS signaling (e.g. pMEK and pAKT).
# (§5) Cells were treated with 500 nM dFKBP7 for the indicated time. Cells were harvested and immunoblotted to measure degradation of FKBP*-KRAS and downstream surrogates of KRAS signaling (e.g. pMEK and pAKT).
# (§6) In an effort to identify the best performing dFKBP molecule, dTAG-KRAS degradation was profiled across a series of dFKBP molecules. Western blotting of NIH3T3 cells expressing dTAG-KRASG12V were treated with 1 μM of the indicated dFKBP heterobifunctional compounds for 24 hours. Cells were harvested and immunoblotted to measure degradation of FKBP*-KRAS and downstream surrogates of KRAS signaling (e.g. pMEK and pAKT).
# (§7) Western blotting of NIH3T3 cells expressing FKBP* fused to the N-terminus of KRAS treated with the indicated concentrations of dFKBP13 for 24 hours. Cells were harvested and immunoblotted to measure degradation of FKBP*-KRAS and downstream surrogates of KRAS signaling (e.g. pMEK and pAKT).
# (§8) To evaluate the kinetic control of targeted degradation of dTAG-KRAS, dFKBP13 was administered by increased duration. Western blotting of NIH3T3 cells expressing FKBP* fused to the N-terminus of KRAS treated with 1 μM dFKBP13 for the indicated time. Cells were harvested and immunoblotted to measure degradation of FKBP*-KRAS and downstream surrogates of KRAS signaling (e.g. pMEK and pAKT).
# The dFKBP13 heterobifunctional compound potently degrades dTAG-KRAS mutant alleles. NIH3T3 cells were engineered to express KRAS alleles either WT or mutant forms of amino acid glycine 12 (G12C, G12D, and G12V). Western blotting of NIH3T3 cells expressing dTAG fused to the N-terminus of KRAS alleles were treated with 1 uM of dFKBP13 for 24 hours. Cells were harvested and immunoblotted to measure degradation of dTAG-KRAS and downstream surrogates of KRAS signaling (e.g. pMEK and pAKT).
# The dFKBP13 heterobifunctional compound potently degrades dTAG-KRAS mutant alleles. NIH3T3 cells were engineered to express either WT or mutant KRAS alleles (G13D, Q61L, and Q61R). Western blotting of NIH3T3 cells expressing dTAG fused to the N-terminus of KRAS alleles were treated with 1 uM of dFKBP13 for 24 hours. Cells were harvested and immunoblotted to measure degradation of dTAG-KRAS and downstream surrogates of KRAS signaling (e.g. pMEK and pAKT).
# [2] = test system: indicated proteins fused to mutant FKBP* with an HA tag; experiment: Immunoblot of proteins fused to FKBP* in MV4;11 leukemia cells; conditions: MV4;11 cells, 16 hours, indicated concentrations
# Text: Immunoblots of MV4;11 leukemia cells expressing indicated proteins fused to mutant FKBP* with an HA tag.
# To test the general utility of the dTAG technology across several protein types, the indicated proteins fused to the dTAG in MV4;11 leukemia cells were expressed.
# FKBP*-KRASG12V = experiment: Immunoblot of FKBP*-KRASG12V (dTAG-KRAS) degradation in NIH3T3 cells; conditions: for degradation of FKBP*-KRASG12V: 24 hours
# Method: as §1, §2, §3, §4
# FIG. 15 is an immunoblot of NIH3T3 cells expressing dTAG-KRASG12V pretreated with 1 uM Carfilzomib (proteasome inhibitor), 0.5 uM MLN4924 (neddylation inhibitor), and 10 uM Lenalidomide (CRBN binding ligand) for two hours prior to a 4 hour treatment with dFKBP13.
# as §5, §6, §7, §8
# NIH3T3 cells (CRBN-WT) were engineered to express dTAG-KRASG12V. Cells were pretreated with 1 uM Carfilzomib (proteasome inhibitor), 0.5 uM MLN4924 (neddylation inhibitor), and 10 uM Lenalidomide (CRBN binding ligand) for two hours prior to a 4 hour treatment with dFKBP13. Lysates were prepared and western immunoblot analysis performed. […] Pre-treatment with the NAE1 inhibitor MLN4924 rescued dTAG-KRASG12V expression establishing dependence on CRL activity, as expected for cullin-based ubiquitin ligases that require neddylation for processive E3 ligase activity. Pre-treatment with excess Lenalidomide abolished dFKBP13-dependent dTAG-KRASG12V degradation, confirming the requirement of CRBN engagement for degradation.
SMILES,"p-AKT signal ([1]; NIH3T3 N-terminal dTAG-KRAS, 500 nM, indicated time)",degradation of proteins fused to dTAG [2],"degradation of N-terminal dTAG-KRAS (FKBP*-KRASG12V) (FKBP*-KRASG12V; NIH3T3, 500 nM, indicated time)","downstream signaling (pMEK and pAKT) ([1]; NIH3T3 FKBP*-KRASG12V, 1 uM, 24 hours)","time to inhibition of downstream signaling ([1]; NIH3T3 FKBP*-KRASG12V, 1 uM, post treatment)","downstream signaling (pMEK and pAKT) ([1]; NIH3T3 dTAG-KRAS WT, G12C, G12D, G12V, 1 uM, 24 hours)","downstream signaling (pMEK and pAKT) ([1]; NIH3T3 dTAG-KRAS WT, G13D, Q61L, Q61R, 1 uM, 24 hours)","IC50 ([1]; read-out: IC50 of inhibition of downstream signaling, NIH3T3 FKBP*-KRASG12V, 24 hours)","degradation of FKBP*-KRASG12V (FKBP*-KRASG12V; NIH3T3, 1 uM)","time to degradation of FKBP*-KRASG12V (FKBP*-KRASG12V; NIH3T3, 1 uM, post treatment)","degradation of FKBP*-KRASG12V (FKBP*-KRASG12V; NIH3T3, indicated concentrations)","mechanism of dTAG-KRASG12V degradation (FKBP*-KRASG12V; NIH3T3 CRBN-WT, 4 hour treatment after inhibitor pretreatment)"
CC[C@H](C(=O)N1CCCC[C@H]1C(=O)O[C@H](CCc1ccc(OC)c(OC)c1)c1cccc(OCC(=O)NCCCOCCOCCOCCCNC(=O)COc2cccc3c2C(=O)N(C2CCC(=O)NC2=O)C3=O)c1)c1cc(OC)c(OC)c(OC)c1 (stereo partly shown) [dFKBP7],downstream decrease in p-AKT signal,degradation was observed with nanomolar concentrations,potent degradation; also recorded: degraded,,,,,,,,,
CC[C@H](C(=O)N1CCCC[C@H]1C(=O)O[C@H](CCc1ccc(OC)c(OC)c1)c1cccc(OCC(=O)NCCCCCCOc2cccc3c2C(=O)N(C2CCC(=O)NC2=O)C3=O)c1)c1cc(OC)c(OC)c(OC)c1 (stereo partly shown) [dFKBP13],,degradation was observed with nanomolar concentrations,,inhibition of downstream signaling,≤ 1 h,potently inhibits downstream signaling,potently inhibits downstream signaling,> 100 nM,potent degradation,≤ 1 h,potent degradation,CRBN- and proteasome-dependent degradation
